Source: patent US7220775B2, “Compound useful for the treatment of neuropathic pain” (H. Lundbeck A/S, priority 2002, dated 2007)

Legend:
[1] = target: T1, Human 5HT1F receptor (Homo sapiens, UniProt P30939); assay: 5HT1F receptor binding ([3H]-serotonin); conditions: Table 8
T1 construct: expressed in transfected cells
Protocol: Human 5HT1B, 5HT1D, 5HT1E, 5HT1F, and 5HT7 Receptors: The cell lysates of LM(tk−) clonal cell line stably transfected with the genes encoding each of these 5HT receptor-subtypes were prepared as described above. Cell membranes were suspended in 50 mM Tris-HCl buffer (pH 7.4 at 37° C.) containing 10 mM MgCl2, 0.2 mM EDTA, 10 µM pargyline, and 0.1% ascorbate. […] Nonspecific binding was determined in the presence of 10 μM serotonin. The bound radioligand was separated by filtration through GF/B filters using a cell harvester.

[2] = target: T2, h5HT6 (Homo sapiens, UniProt P50406); assay: 5-HT6 receptor binding; conditions: Table 8
T2 construct: expressed in transfected cells
T2 sequence (P50406 whole entry): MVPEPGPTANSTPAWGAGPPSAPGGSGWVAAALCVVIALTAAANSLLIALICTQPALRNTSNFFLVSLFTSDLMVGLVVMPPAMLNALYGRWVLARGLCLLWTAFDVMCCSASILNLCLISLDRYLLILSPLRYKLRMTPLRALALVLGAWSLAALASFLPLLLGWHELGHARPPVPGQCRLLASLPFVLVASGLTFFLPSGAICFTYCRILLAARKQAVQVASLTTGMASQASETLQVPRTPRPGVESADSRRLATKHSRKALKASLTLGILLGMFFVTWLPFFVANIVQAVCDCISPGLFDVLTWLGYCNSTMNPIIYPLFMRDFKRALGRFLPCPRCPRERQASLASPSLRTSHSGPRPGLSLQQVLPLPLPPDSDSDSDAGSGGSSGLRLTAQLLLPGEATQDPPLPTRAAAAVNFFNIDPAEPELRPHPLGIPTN
Protocol: Other 5-HT Receptors: Other serotonin receptor binding assays were performed according to published methods: rat 5HT2C receptor (Julius et al., 1988); and 5-HT6 (Monsma, et al., 1993). The binding assays using the 5-HT4 receptor were performed according to the procedures described in U.S. Pat. No. 5,766,879, the disclosure of which is hereby incorporated by reference in its entirety into this application.

[3] = target: T3, human α2C adrenoceptor (Homo sapiens, UniProt P18825); assay: α2C adrenergic receptor binding; conditions: Table 10
T3 construct: expressed in transfected cells
T3 sequence (P18825 whole entry): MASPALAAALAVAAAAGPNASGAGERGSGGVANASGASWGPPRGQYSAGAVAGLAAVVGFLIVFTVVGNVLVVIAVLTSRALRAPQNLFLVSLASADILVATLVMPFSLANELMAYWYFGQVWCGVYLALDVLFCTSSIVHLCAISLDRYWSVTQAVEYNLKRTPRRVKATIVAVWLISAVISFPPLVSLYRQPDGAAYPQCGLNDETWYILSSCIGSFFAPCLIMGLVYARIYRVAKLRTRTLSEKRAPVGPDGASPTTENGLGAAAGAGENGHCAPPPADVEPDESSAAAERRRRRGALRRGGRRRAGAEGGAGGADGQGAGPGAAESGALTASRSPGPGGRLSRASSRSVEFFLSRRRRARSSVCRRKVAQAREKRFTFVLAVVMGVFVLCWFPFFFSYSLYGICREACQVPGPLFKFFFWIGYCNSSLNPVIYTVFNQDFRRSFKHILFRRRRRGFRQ
Text: (§1) Other receptors: Cell membranes expressing human dopamine D1, D2, D4 and rat D3 receptors were purchased through BioSignal, Inc. (Montreal, Canada). Binding assays using the histamine H, receptor; dopamine receptors; and α1A, α1B, and α2 adrenergic receptors may be carried out according to the procedures described in U.S. Pat. No. 5,780,485, the disclosure of which is hereby incorporated by reference in its entirety into this application. Binding assays using the dopamine D5 receptor may be carried out according to the procedures described in U.S. Pat. No. 5,882,855, the disclosure of which is hereby incorporated by reference in its entirety into this application. Binding assays for the human α1D adrenergic receptor may be carried out according to the procedures described in U.S. Pat. No. 6,156,518, the disclosure of which is hereby incorporated by reference in its entirety into this application.

[4] = target: T4, human dopamine D2 receptor (Homo sapiens, UniProt P14416); assay: Dopamine D2 receptor binding; conditions: Table 10
T4 construct: purchased BioSignal, Inc. (Montreal, Canada)
T4 sequence (P14416 whole entry): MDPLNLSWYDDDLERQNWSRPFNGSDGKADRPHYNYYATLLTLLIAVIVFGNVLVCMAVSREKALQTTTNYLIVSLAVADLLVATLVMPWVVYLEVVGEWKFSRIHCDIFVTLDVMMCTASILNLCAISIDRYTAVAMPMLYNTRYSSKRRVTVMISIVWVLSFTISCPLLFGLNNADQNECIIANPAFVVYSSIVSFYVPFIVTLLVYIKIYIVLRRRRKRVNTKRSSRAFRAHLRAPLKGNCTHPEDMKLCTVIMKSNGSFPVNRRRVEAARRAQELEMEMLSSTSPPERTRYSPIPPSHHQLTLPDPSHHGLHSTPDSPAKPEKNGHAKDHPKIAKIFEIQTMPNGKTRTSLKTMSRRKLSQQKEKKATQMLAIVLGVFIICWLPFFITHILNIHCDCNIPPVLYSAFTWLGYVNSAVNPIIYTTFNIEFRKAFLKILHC
Text: as §1

[5] = target: T5, human dopamine D4 receptor (Homo sapiens, UniProt P21917); assay: Dopamine D4 receptor binding; conditions: Table 10
T5 construct: purchased BioSignal, Inc. (Montreal, Canada)
T5 sequence (P21917 whole entry): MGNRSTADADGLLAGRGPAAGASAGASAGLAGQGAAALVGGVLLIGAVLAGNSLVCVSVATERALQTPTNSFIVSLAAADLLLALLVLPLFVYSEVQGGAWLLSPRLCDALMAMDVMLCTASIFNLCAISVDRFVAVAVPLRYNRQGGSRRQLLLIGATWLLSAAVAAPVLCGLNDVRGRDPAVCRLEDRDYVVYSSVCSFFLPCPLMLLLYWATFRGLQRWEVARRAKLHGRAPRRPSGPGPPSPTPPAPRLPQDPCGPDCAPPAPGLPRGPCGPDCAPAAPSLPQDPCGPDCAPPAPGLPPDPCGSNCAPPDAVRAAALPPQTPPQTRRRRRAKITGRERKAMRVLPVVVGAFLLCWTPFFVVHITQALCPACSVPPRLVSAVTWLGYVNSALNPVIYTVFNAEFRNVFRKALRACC
Text: as §1

[6] = target: human dopamine D5 receptor (Homo sapiens, UniProt P21918); assay: Dopamine D5 receptor binding; conditions: Table 10
Chain of human dopamine D5 receptor (P21918 whole entry): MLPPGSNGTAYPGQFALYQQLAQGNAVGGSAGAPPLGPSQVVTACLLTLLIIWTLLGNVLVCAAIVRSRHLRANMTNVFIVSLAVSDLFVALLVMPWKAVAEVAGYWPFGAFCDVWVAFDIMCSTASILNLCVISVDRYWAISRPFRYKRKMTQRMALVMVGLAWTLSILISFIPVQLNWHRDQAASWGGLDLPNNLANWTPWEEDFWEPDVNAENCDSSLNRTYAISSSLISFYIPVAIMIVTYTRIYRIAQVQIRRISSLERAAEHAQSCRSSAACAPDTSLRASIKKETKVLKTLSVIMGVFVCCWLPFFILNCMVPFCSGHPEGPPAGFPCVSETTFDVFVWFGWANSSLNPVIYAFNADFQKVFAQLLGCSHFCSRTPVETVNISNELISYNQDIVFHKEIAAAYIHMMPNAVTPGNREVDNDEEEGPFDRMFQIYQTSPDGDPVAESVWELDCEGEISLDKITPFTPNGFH
Text: as §1

[7] = test system: neuropathic rats (chronic constriction nerve injury); assay: Chronic constriction nerve injury model of neuropathic pain: thermal hyperalgesia (Thermal Plantar Test); assay type: in vivo, rat
Protocol: The aim of this study was to assess the potential analgesic effects of Example 92 following intraperitoneal administration at the doses of 3, 10 and 30 mg/kg, respectively, in an animal model of neuropathic pain. A peripheral mononeuropathy was induced in the right hind limb of rats following a chronic constriction nerve injury (Bennett and Xie, 1988), and the development of mechanical allodynia and thermal hyperalgesia was monitored using established behavioral tests (Attal, N., et al., 1990; Hargreaves, K., et al., 1988).
Male Sprague-Dawley rats within the weight range of 200-225 g, and approximate age 7-9 weeks, were allowed to acclimate for a minimum of 6 days prior to the start of the behavioral testing.
All rats underwent a chronic constriction nerve injury, and of these, those that successfully developed allodynia and hyperalgesia were allocated to treatment groups.
There were 5 separate treatment groups (with a minimum of 10 rats per group). The treatment groups were as follows: • Group C received Morphine at 10 mg/kg (n=10) • Group D received Vehicle for Example 92* at 1 ml/kg (n=10) (* 100% DMSO) • Group E received Example 92 at 30 mg/kg (n=10) • Group F received Example 92 at 3 mg/kg (n=10) • Group G received Example 92 at 10 mg/kg (n=10)
The dose volume for all treatments was 1 ml/kg. Each rat received a single i.p. dose of the test substance, reference substance or vehicle on Day 12 PO. Test substance and vehicle dosing solutions were encoded (C-G) so that the observers were unaware of the identity of the treatment groups.
The behavioral tests (Von Frey filament and Thermal Plantar Tests—see below) were performed on all rats on 3 separate days prior to […], to establish baseline values. The pre-surgery baseline values were calculated as the mean of the last 2 days testing (the data from the first day of testing were not included as this was classed as part of the acclimating period). The sequence of tests was always mechanical allodynia (Von Frey Test) followed by thermal hyperalgesia (Thermal Plantar Test), with a minimum 5 min period allowed between the 2 tests.
Each rat was placed in a clear plastic chamber with a glass floor and allowed a short period to acclimatize to the new environment (approximately 5 min.). The animals were then challenged with a radiant Infrared (IR) heat source, directed at the plantar surface of the hind paw from below, and the withdrawal latency of both the ipsilateral and contralateral hind paws was evaluated. The infrared intensity was set at IR50 and the maximum length of exposure to the IR source was 18 s. Non-responding animals were allocated a withdrawal latency of 18 s.
The animals were surgically prepared over 5 days. […]

T1 sequence (P30939 whole entry): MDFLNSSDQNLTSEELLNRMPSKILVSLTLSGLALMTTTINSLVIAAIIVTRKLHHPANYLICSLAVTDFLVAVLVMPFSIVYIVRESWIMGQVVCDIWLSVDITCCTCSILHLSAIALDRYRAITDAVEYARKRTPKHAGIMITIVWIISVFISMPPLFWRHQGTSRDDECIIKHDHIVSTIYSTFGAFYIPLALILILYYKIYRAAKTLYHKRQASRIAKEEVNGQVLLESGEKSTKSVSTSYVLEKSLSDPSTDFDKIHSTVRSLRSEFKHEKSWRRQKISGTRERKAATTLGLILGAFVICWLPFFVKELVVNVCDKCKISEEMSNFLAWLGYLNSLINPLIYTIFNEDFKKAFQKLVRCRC

O=C1C(=Nc2cccc(C(F)(F)F)c2)c2ccccc2N1c1ccccc1 [Example 92, 1-PHENYL-3-[[3-(TRIFLUOROMETHYL)PHENYL]IMINO]-1,3-DIHYDRO-2H-INDOL-2-ONE]
selectivity ratio h5HT1F (Ki h5HT1F / Ki hGAL3) [1]: >100 | selectivity ratio h5HT6 (Ki h5HT6 / Ki hGAL3) [2]: >100 | selectivity ratio hα2C (Ki hα2C / Ki hGAL3) [3]: >100 | selectivity ratio hD2 (Ki hD2 / Ki hGAL3) [4]: >100 | selectivity ratio hD4 (Ki hD4 / Ki hGAL3) [5]: >100 | selectivity ratio hD5 (Ki hD5 / Ki hGAL3) [6]: >100 | responses of the uninjured (contralateral) left paw (thermal plantar) vs vehicle ([7]; 3, 10, 30 mg/kg i.p., any time point): No significant changes | effect on withdrawal latency of the nerve-injured hind paw to the thermal plantar device ([7]; 3, 10 and 30 mg/kg i.p., approx. 40 and 100 min PD): no significant effect
